ChEMBL document CHEMBL1147052, “Innate immunity and transcription of MGAT-III and Toll-like receptors in Alzheimer's disease patients are improved by bisdemethoxycurcumin” (Proc Natl Acad Sci U S A, 2007)
Calls of active or inactive are those of the source.

Tests used:
Type in all cases: functional, cell-based
Settings in all cases: Homo sapiens
Macrophage = assay: Induction of amyloid beta phagocytosis in macrophages from Alzheimer's disease patient at 0.1 uM
PBMC [1] = assay: Upregulation of MGAT3 transcription in PBMC from Alzheimer's disease patient
PBMC [2] = assay: Upregulation of TLR transcription in PBMC from Alzheimer's disease patient
PBMC [3] = assay: Increase in TLR2 protein expression in PBMC from Alzheimer's disease patient at 0.1 uM by flow cytometry
PBMC [4] = assay: Increase in TLR3 protein expression in PBMC from Alzheimer's disease patient at 0.1 uM by flow cytometry
PBMC [5] = assay: Increase in TLR4 protein expression in PBMC from Alzheimer's disease patient at 0.1 uM by flow cytometry

Measured: Activity

O=C(/C=C/c1ccc(O)cc1)CC(=O)/C=C/c1ccc(O)cc1
active: all assays above
